Consider 12 compounds from patent US20260232823A1, “AZA-BENZAZEPINE IMMUNOCONJUGATES, AND USES THEREOF” (BOLT BIOTHERAPEUTICS, INC., priority 2023, published 2026).

Data set [1] can be described thus: hydrolysis of the amidine group to lactam in PBS buffer. Type of data set: physicochemical. As to the method:
(§1) The hydrolytic degradation rates of benzazepine and 7-azabenzazepine compounds were directly compared in PBS (pH 7.4) at 37° C. to mimic in vivo effects and in formulation buffer to simulate storage and lifetime effects. […] The half-lives (t½) of aza-benzazepine compounds azaBa-6 and azaBz-8 were 30 days and 40 days, respectively. […] The amount of lactam is normalized for each sample at the start (to) for easier rate comparisons. The 7-aza modification is stabilizing in PBS and formulation buffer by about 5-fold relative to the corresponding benzazepine compounds.

Data set [2] is described as follows: degradation of amidine to lactam in human plasma. The following applies: human plasma at room temperature after 24 hours. It counts as in vitro ADME. As to the method:
Amidine benzazepine comparator compound CBz-3 (Table 1b) degrades in PBS buffer (pH 7.4) at 40° C. to produce lactam benzazepine comparator compound CBz-5 (Table 1b) at 90% at 17 days. […] In human plasma at room temperature after 24 hours, 15% of CBz-3 degrades to CBz-5.

A further data set concerns human TLR7 or human TLR8. Kind of data set: HEK Reporter Assay (TLR 7/8, receptor not separated). The following applies: lactam comparator compounds. Type of data set: cell-based. An excerpt:
It was discovered that the amidine functional group of benzazepine adjuvant compounds, moieties conjugated to antibodies as immunoconjugates (WO 2020/252294; WO 2021/067242; WO 2022/125884; WO 2022/125891; WO 2022/125904; WO 2022/125908; WO 2022/125915), undergoes hydrolysis to the lactam functional group.
(§2) HEK293 reporter cells expressing human TLR7 or human TLR8 were purchased from Invivogen and vendor protocols were followed for cellular propagation and experimentation. Briefly, cells were grown to 80-85% confluence at 5% CO2 in DMEM supplemented with 10% FBS, Zeocin, and Blasticidin. Cells were then seeded in 96-well flat plates at 4×10^4 cells/well with substrate containing HEK detection medium and immunostimulatory molecules. Activity was measured using a plate reader at 620-655 nm wavelength.
For orientation: In a reporter assay the amount or activity of a reporter protein is the signal.

The target of the next data set is T1, human TLR8 (Homo sapiens, UniProt Q9NR97).
T1 construct: host or cells: HEK293 NFKB reporter cells
T1 sequence (Q9NR97 27-1041): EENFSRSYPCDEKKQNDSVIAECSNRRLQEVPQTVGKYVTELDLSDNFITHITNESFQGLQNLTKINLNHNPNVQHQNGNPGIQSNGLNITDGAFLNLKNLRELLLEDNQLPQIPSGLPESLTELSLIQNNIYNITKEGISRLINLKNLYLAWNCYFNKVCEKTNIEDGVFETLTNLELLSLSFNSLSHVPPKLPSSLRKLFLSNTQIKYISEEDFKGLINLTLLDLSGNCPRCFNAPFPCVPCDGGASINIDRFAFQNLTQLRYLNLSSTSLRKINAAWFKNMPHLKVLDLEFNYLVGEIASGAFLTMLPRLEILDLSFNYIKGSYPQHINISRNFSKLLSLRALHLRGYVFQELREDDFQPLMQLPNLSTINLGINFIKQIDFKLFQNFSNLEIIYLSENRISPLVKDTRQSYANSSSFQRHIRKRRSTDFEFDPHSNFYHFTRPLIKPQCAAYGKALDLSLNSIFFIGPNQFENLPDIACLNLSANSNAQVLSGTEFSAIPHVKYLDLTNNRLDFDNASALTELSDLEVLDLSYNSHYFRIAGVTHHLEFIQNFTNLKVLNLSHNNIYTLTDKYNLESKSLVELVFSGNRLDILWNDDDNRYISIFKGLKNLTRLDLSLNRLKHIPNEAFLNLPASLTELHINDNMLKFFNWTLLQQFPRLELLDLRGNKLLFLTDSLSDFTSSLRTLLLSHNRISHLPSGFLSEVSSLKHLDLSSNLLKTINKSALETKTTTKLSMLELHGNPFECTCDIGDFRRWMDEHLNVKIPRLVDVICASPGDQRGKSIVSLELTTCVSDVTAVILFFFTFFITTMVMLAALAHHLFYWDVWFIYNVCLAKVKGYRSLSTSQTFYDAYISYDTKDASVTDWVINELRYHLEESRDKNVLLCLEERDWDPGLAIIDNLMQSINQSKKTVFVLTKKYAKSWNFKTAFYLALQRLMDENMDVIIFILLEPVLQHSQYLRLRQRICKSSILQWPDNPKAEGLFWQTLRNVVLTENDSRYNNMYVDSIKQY
Description: HEK Reporter Assay, HEK293 NFKB reporter cells expressing human TLR8. It counts as cell-based. The following applies: read-out: EC50 against TLR8. As to the method:
(§3) Exemplary aza-benzazepine compounds (azaBza) of Table 1a and comparator compounds (CBz) of Table 1b were synthesized, purified, and characterized by mass spectrometry and shown to have the expected mass. Additional experimental procedures are found in the Examples. Activity against HEK293 NFKB reporter cells expressing human TLR7 or human TLR8 was measured according to Example 202.
as §2

For the next data set, the target named is T2, human TLR7 (Homo sapiens, UniProt Q9NYK1).
T2 construct: host or cells: HEK293 NFKB reporter cells
T2 sequence (Q9NYK1 27-1049): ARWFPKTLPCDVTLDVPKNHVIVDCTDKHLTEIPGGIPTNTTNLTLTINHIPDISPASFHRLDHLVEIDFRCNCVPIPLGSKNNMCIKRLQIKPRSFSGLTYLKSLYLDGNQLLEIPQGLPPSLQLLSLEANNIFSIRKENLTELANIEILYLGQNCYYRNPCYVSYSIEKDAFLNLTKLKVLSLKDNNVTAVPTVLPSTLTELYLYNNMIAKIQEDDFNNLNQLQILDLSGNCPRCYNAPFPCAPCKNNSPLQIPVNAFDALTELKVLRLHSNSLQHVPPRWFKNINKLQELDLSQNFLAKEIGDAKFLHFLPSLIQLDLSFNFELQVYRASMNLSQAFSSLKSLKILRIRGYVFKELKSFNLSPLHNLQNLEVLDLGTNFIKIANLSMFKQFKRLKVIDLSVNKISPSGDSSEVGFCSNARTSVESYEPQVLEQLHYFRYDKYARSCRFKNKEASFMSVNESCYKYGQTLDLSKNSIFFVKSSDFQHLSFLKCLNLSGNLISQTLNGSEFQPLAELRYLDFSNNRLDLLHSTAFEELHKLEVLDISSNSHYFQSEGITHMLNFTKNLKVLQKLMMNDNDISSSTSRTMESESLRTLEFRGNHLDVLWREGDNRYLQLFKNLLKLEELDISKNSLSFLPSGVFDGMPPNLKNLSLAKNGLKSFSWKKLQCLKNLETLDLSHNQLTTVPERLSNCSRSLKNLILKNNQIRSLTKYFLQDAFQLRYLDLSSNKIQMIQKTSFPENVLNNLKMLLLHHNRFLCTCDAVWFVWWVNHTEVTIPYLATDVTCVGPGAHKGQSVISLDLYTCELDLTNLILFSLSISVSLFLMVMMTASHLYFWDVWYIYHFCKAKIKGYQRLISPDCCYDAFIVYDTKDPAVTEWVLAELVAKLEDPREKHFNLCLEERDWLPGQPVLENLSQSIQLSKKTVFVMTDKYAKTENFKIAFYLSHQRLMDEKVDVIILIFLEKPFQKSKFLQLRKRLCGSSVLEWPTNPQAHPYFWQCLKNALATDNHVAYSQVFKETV
Kind of data set: HEK Reporter Assay, HEK293 NFKB reporter cells expressing human TLR7. It counts as cell-based. The method, then: as §3, §2

Data set [3] is described as follows: hydrolysis of the amidine group to lactam in formulation buffer. Type of data set: physicochemical. The following applies: formulation buffer pH 6, 22° C.; read-out: t ½ in formulation buffer (pH 6) at 22° C. (converted). The method, then:
A nitrogen at the 7-position is stabilizing and slows hydrolysis in aza-benzazepine compounds with a variety of substituents at the 8-position. […] The amount of lactam is normalized for each sample at the start (to) for easier rate comparisons.
as §1

The mark [4] stands for this setting: PBS (pH 7.4) at 37° C., read-out: half-lives (t½), hydrolytic degradation (converted).
Where [5] appears, read: PBS pH 7.4, 37° C., read-out: t ½ in PBS (pH 7.4) at 37° C. (converted).

Molecules are shown by their SMILES.

As to `CCCN(OCC)C(=O)C1=Cc2ccc(-c3cnc(CN)nc3)cc2N=C(N)C1` [CBz-2, reference compound], the half-life in data set [1] (setting [4]) was 6 days.
Take `CCCN(OCC)C(=O)C1=Cc2ccc(-c3cnc(CNC(=O)CCOCCOCCOCCOCCOCCOCCOCCOCCOCCOCCC(=O)O)cn3)cc2N=C(N)C1` [CBz-3]: the “degraded to lactam (CBz-5)” value in data set [2] is recorded as 15%.
Regarding `CCCN(OCC)C(=O)C1=Cc2ccc(C(=O)NCCOC)cc2N=C(N)C1` [CBz-7, reference compound], the half-life in data set [1] (setting [4]) is 8 days.
With `CCCN(OCC)C(=O)C1=Cc2ccc(-c3cnc(CN)nc3)cc2NC(=O)C1` [CBz-8], the “activity in the HEK assay (TLR 7/8 agonist)” value with human TLR7 or human TLR8 was “inactive”.
Same read-out and setting: to `CCCN(OCCNC(=O)NC1CCC1)C(=O)C1=Cc2ccc(-c3cnc(CN)nc3)cc2NC(=O)C1` [CBz-9] belongs “inactive”.
Take `CCCN(CCC)C(=O)C1=Cc2ccncc2N=C(N)C1` [azaBz-2]: the EC50 at human TLR8 was found to be 5500 nM. For the same compound, on human TLR7, the “response against TLR7” value is “no response”.
As for `CCCN(OCCNC(=O)OC(C)(C)C)C(=O)C1=Cc2cnc(C(=O)O)cc2N=C(N)C1` [azaBz-3, 2-amino-4-((2-((tert-butoxycarbonyl)amino)ethoxy)(propyl)carbamoyl)-3H-pyrido[4,3-b]azepine-8-carboxylic acid], the half-life is 20 days in data set [1] (setting [5]) and 30 days in data set [3].
On to `CCCN(OCCNC(=O)OC(C)(C)C)C(=O)C1=Cc2cnc(S(=O)(=O)O)cc2N=C(N)C1` [azaBz-5], for which the half-life in data set [1] (setting [5]) is 70 days; in data set [3] it was 50 days.
With `CCCN(OCC)C(=O)C1=Cc2cnc(-c3cnc(CN)nc3)cc2N=C(N)C1` [azaBz-6, 2-amino-8-(2-(aminomethyl)pyrimidin-5-yl)-N-ethoxy-N-propyl-3H-pyrido[4,3-b]azepine-4-carboxamide], the half-life in data set [1] (setting [4]) and in data set [3] was 30 days in each case.
`CCCN(OCC)C(=O)C1=Cc2cnc(S(=O)(=O)NCCOC)cc2N=C(N)C1` [azaBz-7]: the half-life in data set [1] (setting [5]) and in data set [3] was 100 days each time.
Take `CCCN(OCC)C(=O)C1=Cc2cnc(S(=O)(=O)N(C)CCOC)cc2N=C(N)C1` [azaBz-8]: the half-life in data set [1] (setting [4]) and in data set [3] was 40 days each time.
`CCCN(OCCNC(=O)OC(C)(C)C)C(=O)C1=Cc2ccncc2N=C(N)C1` [azaBz-24]: the EC50 on human TLR8 stood at 196 nM; on human TLR7 (read-out: EC50 against TLR7), 842 nM.

What is called EC50 is the concentration needed to bring the measured effect to its halfway point.
